Test results as given in patent US8541670B2, “Compositions and methods for inhibiting tumor cell growth” (priority 2007, dated 2013).
Where no end group is shown, it is not given here. red fluorescent dye = not defined here

Assays:
N2a cells = assay: MTT cell proliferation assay; assay type: cell-based
Procedure: In histogram series 2, treatments were removed after 24 hours and cells were incubated for another 24 hours without treatment. […] Mitochondrial activity (reflecting cellular growth and viability) in the presence of ZaTa and ZaTa variants (ZaTa T10D, ZaTa T8D, ZaTa T14R, and ZaTa Y17T) was evaluated by measuring the optical density (“OD”) at 490 nm on a plate reader. ZaTa T10D refers to a ZaTa polypeptide variant in which the Threonine (T) at position 10 of SEQ ID NO: 60 is substituted by an Aspartic Acid (D). ZaTa T8D refers to a ZaTa polypeptide variant in which the Threonine (T) at position 8 of SEQ ID NO: 60 is substituted by an Aspartic Acid (D). ZaTa T14R refers to a ZaTa polypeptide variant in which the Threonine (T) at position 14 of SEQ ID NO: 60 is substituted by an Arginine (R). ZaTa Y17T refers to a ZaTa polypeptide variant in which the Tyrosine (Y) at position 17 of SEQ ID NO: 60 is substituted by an Threonine (T).
AKT affects a network that positively regulates G1/S cell cycle progression through several mechanisms that involve the expression and subcellular localization of the CDK inhibitor p27^Kip1 (Blain and Massague (2002) Nat. Med. 8:1076-1078; Liang, et al. (2002) supra; Shin, et al. (2002) supra; Viglietto, et al. (2002) supra). Based on these studies, the effect of ZaTa peptide on cell proliferation was assessed. […] Capturing live images of cultured N2a cells in the presence of different concentrations of the ZaTa peptide confirmed an obvious reduction in the number of dividing cells.
Based on the importance of the C-terminal arm of ZaTa for its inhibitory action on AKT, it was determined whether the free hydroxyl groups on residues Thr-8, Thr-10 (equivalent to Thr-197 in full-length PKAc), Thr-14 and Tyr-17 were important for the biological activity of this peptide. Mutants of ZaTa peptide were synthesized by replacing Thr-8 or Thr-10 residues with Asp (ZaTa^T8D and ZaTa^T10D, respectively) as an amino acid with a negatively charged side chain. Mutants of ZaTa with the hydrophilic positively charged amino acid Arg at either position Thr-14 or Tyr-17 (ZaTa^T14R and ZaTa^Y17R, respectively) were also synthesized. […] The inhibitory effect of ZaTa peptide on cell proliferation was reversible, to a large extent, after the removal of ZaTa treatment (FIG. 3, histogram series 2).
Cells (5×10^3) were incubated in 96-well plates in the presence of different concentrations of the ZaTa peptide, control peptide or DMSO as vehicle. Media was removed at different time intervals and replaced with media containing MTT (5 mg/mL), and incubated for one hour at 37° C. […] The activity of the mitochondria, reflecting cellular growth and viability, was evaluated by measuring the optical density at 490 nm on a plate reader.

TrkB = TrkB (Homo sapiens, UniProt Q16620); assay: Cell-based kinase assay, phosphorylation of intracellular substrate (Tyr-783 PLC)
Procedure: As a specific substrate, the phosphorylation level of GSK-3[…] at Ser-9 was also evaluated. […] The decrease was specific to the AKT phosphorylation site on GSK-3[…] at Ser-9, since a change in the phosphorylation level of GSK-3[…] at Tyr-216 or GSK-3[…] at Tyr-279 was not observed. Moreover, the in vivo reduction of the phosphorylation of AKT substrates was more obvious at the injection site, since a significant change in the phosphorylation of AKT substrates in the frontal cortex or cerebellum between the two hemispheres was not observed. […] To test the specificity/selectivity of ZaTa as the inhibitor of AKT1 versus the other major kinases, a series of in vitro kinase assays was performed at IC50 for AKT1 and at ten times higher concentrations. […]
Phosphorylation sites for kinases analyzed herein included Ser-235/236 S6 (a substrate for p70S6K), Tyr-207 CRKL (a substrate for Abl; Zipfel, et al. (2004) supra), Ser-241 PDK1 (a substrate for PI3K), Tyr-1022/1023 JAK1 (a substrate for JAK3; Wang, et al. (2003) supra), Ser-421 Huntingtin (a substrate for SGK; Rangone, et al. (2004) supra), Tyr-783 PLC (a substrate for TrkB; Middlemas, et al. (1994) supra), and Ser-338 cRaf (a substrate for PAK3; King, et al. (1998) supra).

Row | Substance | dose causing significant decrease in the number of live cells (as low as) (N2a cells) [µM] | number of live cells 24 hours after removal of treatment versus DMSO vehicle (N2a cells; 10 μM, 24 hours treatment then 24 hours without) | number of live cells, MTT (N2a cells; different concentrations) | inhibition of TrkB in cells (TrkB)
1 | AKRVKGRTWTLCGTPEY [ZaTa] | 2 | no significant differences | dose-dependent decrease in the number of live cells | 
2 | labeled ZaTa: ZaTa peptide labeled with a red fluorescent dye at its N-terminus ({red fluorescent dye}-AKRVKGRTWTLCGTPEY; reading uncertain) |  |  |  | did not cause inhibition
